Results taken from ChEMBL document CHEMBL5532742, “Design and Synthesis of the Linezolid Bioisosteres to Resolve the Serotonergic Toxicity Associated with Linezolid” (ACS Med Chem Lett, 2024).
Converted amounts (≈) assume the structure as drawn. “And” between values parts separate entries of the source, which are not always exact repeats. Equal entries are not always repeated.

Columns and labels:
[1] = tested on: Mycobacterium tuberculosis; assay: Antimycobacterial activity against Mycobacterium tuberculosis H37Rv assessed as prevention of bacterial growth measured after 7 days by alamar blue assay; assay type: functional; conditions: 168 h, time 7 day
[2] = biological target: T1, Amine oxidase [flavin-containing] A (Homo sapiens, UniProt P21397); assay: Inhibition of human recombinant MAO-A using kynuramine as substrate; assay type: toxicity
T1 sequence (P21397 whole entry): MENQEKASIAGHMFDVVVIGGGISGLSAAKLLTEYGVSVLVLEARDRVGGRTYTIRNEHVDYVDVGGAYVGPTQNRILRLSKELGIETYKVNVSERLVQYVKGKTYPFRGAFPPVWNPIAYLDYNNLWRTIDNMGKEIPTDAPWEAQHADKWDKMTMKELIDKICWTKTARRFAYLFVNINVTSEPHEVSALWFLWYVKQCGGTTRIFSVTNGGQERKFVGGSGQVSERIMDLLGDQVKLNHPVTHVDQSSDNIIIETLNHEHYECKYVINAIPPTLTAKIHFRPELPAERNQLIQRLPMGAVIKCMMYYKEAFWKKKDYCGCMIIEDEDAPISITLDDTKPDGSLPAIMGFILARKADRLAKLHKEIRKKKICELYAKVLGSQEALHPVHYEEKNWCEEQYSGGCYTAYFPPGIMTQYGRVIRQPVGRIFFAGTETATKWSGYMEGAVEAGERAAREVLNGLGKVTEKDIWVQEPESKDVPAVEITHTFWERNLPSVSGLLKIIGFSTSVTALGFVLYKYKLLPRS

[3] = biological target: T2, Amine oxidase [flavin-containing] B (Homo sapiens, UniProt P27338); assay: Inhibition of human recombinant MAO-B using benzylamine as substrate; assay type: toxicity
T2 sequence (P27338 whole entry): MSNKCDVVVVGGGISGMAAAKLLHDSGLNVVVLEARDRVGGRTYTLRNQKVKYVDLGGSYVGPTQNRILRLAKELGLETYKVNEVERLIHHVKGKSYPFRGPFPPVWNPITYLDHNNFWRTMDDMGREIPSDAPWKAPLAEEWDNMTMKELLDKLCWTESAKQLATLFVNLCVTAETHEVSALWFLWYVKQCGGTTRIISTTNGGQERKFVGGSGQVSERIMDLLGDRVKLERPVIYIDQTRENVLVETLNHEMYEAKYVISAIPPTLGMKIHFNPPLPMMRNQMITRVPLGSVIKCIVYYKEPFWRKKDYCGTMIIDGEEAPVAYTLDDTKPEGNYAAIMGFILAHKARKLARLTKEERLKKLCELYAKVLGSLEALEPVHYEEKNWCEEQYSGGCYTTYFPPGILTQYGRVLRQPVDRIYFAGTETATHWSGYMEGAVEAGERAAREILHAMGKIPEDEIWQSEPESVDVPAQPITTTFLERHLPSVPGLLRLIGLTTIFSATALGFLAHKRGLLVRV

[4] = tested on: Mycobacterium tuberculosis; assay: Antimycobacterial activity against Mycobacterium tuberculosis clinical isolate without mutation incubated for 1 week by resazurin dye based fluorescence analysis; assay type: functional; conditions: time 1 weeks
[5] = biological target: T1, Amine oxidase [flavin-containing] A; assay: Inhibition of human recombinant MAO-A using tyramine as substrate by ELISA; assay type: toxicity
[6] = biological target: T2, Amine oxidase [flavin-containing] B; assay: Inhibition of human recombinant MAO-B using tyramine as substrate by ELISA; assay type: toxicity
Staphylococcus aureus = assay: Antibacterial activity against Staphylococcus aureus ATCC 25923; assay type: functional
MAO-B = biological target: T3, MAO-B (Homo sapiens, UniProt P27338); assay: Potency index, ratio of test compound IC50 to linezolid IC50 for inhibition of human recombinant MAO-B using benzylamine as substrate; assay type: toxicity; conditions: probe benzylamine, read-out: Ratio IC50
T3 sequence (P27338 whole entry): T2 sequence (P27338 whole entry)

Compound | MIC [1] | IC50 [2] [µM] | IC50 [3] [µM] | MIC50 [4] [µM] | IC50 [5] [µM] | IC50 [6] [µM] | MIC (Staphylococcus aureus) [µg/mL] | selectivity ratio (MAO-B)
CCCCS(=O)(=O)NC[C@H]1CN(c2ccc(N3CCOCC3)c(F)c2)C(=O)O1 | 1.87 µM and > 25 µg/mL | > 40 | 25.4 |  |  |  |  | 
CC(C)(C)c1ccc(S(=O)(=O)NC[C@H]2CN(c3ccc(N4CCOCC4)c(F)c3)C(=O)O2)cc1 | 1.58 µM and > 25 µg/mL | 19.3 | 13.2 |  |  |  |  | 
O=C(NC[C@H]1CN(c2ccc(N3CCOCC3)c(F)c2)C(=O)O1)C1CC1 | 2.08 µM (≈ 0.756 µg/mL) | > 40 | 30.3 | 1.11 (≈ 0.403 µg/mL) |  |  |  | 
NNC(=O)c1ccncc1 [ISONIAZID] |  |  |  | <0.2 |  |  |  | 
O=C1O[C@H](Cn2ccnn2)CN1c1ccc(N2CCOCC2)c(F)c1 |  |  |  |  | 31.9 | 15.4 | 1 (≈ 2.88 µM) | 
O=C(NC[C@H]1CN(c2ccc(N3CCOCC3)c(F)c2)C(=O)O1)c1cccs1 | 1.92 µM (≈ 0.778 µg/mL) | > 40 | 33.1 | 3.12 (≈ 1.27 µg/mL) |  |  |  | 
CC(=O)NC[C@H]1CN(c2ccc(N3CCOCC3)c(F)c2)C(=O)O1 [LINEZOLID] | 2.31 µM (≈ 0.779 µg/mL) |  |  | 0.34 (≈ 0.115 µg/mL) |  |  |  | 
O=C1O[C@@H](CNS(=O)(=O)c2cccs2)CN1c1ccc(N2CCOCC2)c(F)c1 | 1.76 µM (≈ 0.777 µg/mL) | > 40 | 27.3 | 4.01 (≈ 1.77 µg/mL) |  |  |  | 
O=C1O[C@@H](CNS(=O)(=O)C2CC2)CN1c1ccc(N2CCOCC2)c(F)c1 | 1.95 µM and > 25 µg/mL | > 40 | 11.4 |  |  |  |  | 
CS(=O)(=O)NC[C@H]1CN(c2ccc(N3CCOCC3)c(F)c2)C(=O)O1 | 2.14 µM (≈ 0.799 µg/mL) | > 40 | 2.95 | 1.11 (≈ 0.414 µg/mL) |  |  |  | 
CO[C@H]1/C=C/O[C@@]2(C)Oc3c(C)c(O)c4c(O)c(c(/C=N/N5CCN(C)CC5)c(O)c4c3C2=O)NC(=O)/C(C)=C\C=C\[C@H](C)[C@H](O)[C@@H](C)[C@@H](O)[C@@H](C)[C@H](OC(C)=O)[C@@H]1C [RIFAMPIN] |  |  |  | <0.04 |  |  |  | 
CCS(=O)(=O)NC[C@H]1CN(c2ccc(N3CCOCC3)c(F)c2)C(=O)O1 | 2.01 µM (≈ 0.779 µg/mL) | > 40 | > 40 | 0.74 (≈ 0.287 µg/mL) |  |  |  | 64.6
